Measurements reported in patent US20240180900A1, “COMPOUNDS AND METHODS FOR THE TARGETED DEGRADATION OF ANDROGEN RECEPTOR” (Arvinas Operations, Inc., priority 2022, published 2024).

What was measured:
AR = target: T1, AR (Homo sapiens, UniProt P10275); experiment: AR degradation in castrated mice bearing VCaP xenografts (western blotting); format: in vivo, mouse; design: from tissue; host or cells: VCaP xenograft tumour tissue from castrated CB17/SCID mice
T1 sequence (P10275 1-920): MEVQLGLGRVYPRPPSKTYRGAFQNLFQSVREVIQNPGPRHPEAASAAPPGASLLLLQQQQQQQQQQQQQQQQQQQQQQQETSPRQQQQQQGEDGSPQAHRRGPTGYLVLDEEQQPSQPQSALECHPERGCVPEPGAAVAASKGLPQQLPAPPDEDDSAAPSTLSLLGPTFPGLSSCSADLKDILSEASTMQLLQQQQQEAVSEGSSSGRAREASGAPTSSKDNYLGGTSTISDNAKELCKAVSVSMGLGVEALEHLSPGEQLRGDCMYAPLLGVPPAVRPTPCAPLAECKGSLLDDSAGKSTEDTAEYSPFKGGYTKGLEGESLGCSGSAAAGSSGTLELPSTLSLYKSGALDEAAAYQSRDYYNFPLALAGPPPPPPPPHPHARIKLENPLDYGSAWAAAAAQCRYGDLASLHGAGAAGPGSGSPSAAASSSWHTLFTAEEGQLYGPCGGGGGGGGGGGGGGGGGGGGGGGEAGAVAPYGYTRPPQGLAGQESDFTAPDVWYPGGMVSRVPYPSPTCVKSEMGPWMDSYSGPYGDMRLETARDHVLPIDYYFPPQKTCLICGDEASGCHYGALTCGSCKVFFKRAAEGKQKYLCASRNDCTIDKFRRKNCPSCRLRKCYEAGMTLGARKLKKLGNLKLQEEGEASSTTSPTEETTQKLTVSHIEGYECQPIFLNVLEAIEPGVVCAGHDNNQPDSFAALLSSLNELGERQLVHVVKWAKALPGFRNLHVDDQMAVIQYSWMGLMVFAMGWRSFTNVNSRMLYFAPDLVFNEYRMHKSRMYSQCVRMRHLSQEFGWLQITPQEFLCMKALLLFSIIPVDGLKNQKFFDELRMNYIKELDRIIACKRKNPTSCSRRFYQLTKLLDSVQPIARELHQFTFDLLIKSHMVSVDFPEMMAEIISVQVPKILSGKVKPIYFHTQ
Experimental: Tumors were harvested 16 hours post-dose and tumor AR level was established by western blotting. Antibody recognizing human mitochondria specific antibody (Mito.C) was employed as a loading control. The quantitation of AR levels from the western blot is shown (lower panel).
Castration eliminates testosterone produced by the testes. Upon castration, prostate tumor cells implanted in the mouse start to produce testosterone on their own, enabling their growth. The effect of Compound A on AR degradation in vivo was evaluated in castrated mice bearing VCaP xenografts. To recapitulate human CRPC, when the implanted tumors reached a volume of approximately 100 mm^3, the mice were surgically castrated. Three weeks after castration, mice were administered a single PO dose of Compound A at 10, 3, 1, 0.3, 0.1, 0.03, or 0 (vehicle) mg/kg via gavage. Sixteen hours after treatment, the tumor tissues were collected, and lysates were prepared to assess AR expression by western blotting. At Compound A doses of 10, 3, 1, 0.3, 0.1, and 0.03 mg/kg, AR was reduced on average by 96%, 91%, 81%, 73%, -5%, and 14%, respectively (FIG. 11), compared to vehicle control.

[1] = target: T2, AR (VCaP cells, AR amplification) (Homo sapiens, UniProt P10275); experiment: AR degradation assay and time course in VCaP cells; format: cell-based
T2 construct: endogenous in cells; host or cells: VCaP
T2 sequence (P10275 1-920): T1 sequence (P10275 1-920)
Experimental: FIG. 2 is an analysis of Compound A in in vitro AR degradation assays conducted in VCaP cells and LNCaP cancer cells that harbor AR amplification and the AR mutation (T878A) mutation, respectively.
To determine the pharmacological effect of Compound A in vitro, AR degradation assays were conducted in VCaP (vertebral-cancer of the prostate) cancer cells and LNCaP (lymph node carcinoma of the prostate) cancer cells that harbor AR amplification and the AR mutation (T878A) mutation, respectively.
To determine the pharmacological effect of Compound A in vitro, AR degradation assays were conducted in VCaP cells and LNCaP prostate cancer cells that harbor AR amplification and the AR mutation (T878A) mutation, respectively.

COc1cc(O[C@H]2C(C)(C)[C@H](NC(=O)c3ccc(N4CCC(CN5CCN(c6ccc(C(=O)N[C@H]7CCC(=O)NC7=O)c(F)c6)CC5)CC4)cc3)C2(C)C)ccc1C#N [Compound A, 4-(4-((1-(4-(((1R,3R)-3-(4-cyano-3-methoxyphenoxy)-2,2,4,4-tetramethylcyclobutyl)carbamoyl)phenyl)piperidin-4-yl)methyl)piperazin-1-yl)-N—((S)-2,6-dioxopiperidin-3-yl)-2-fluorobenzamide]
AR reduced on average vs vehicle control (AR; single PO dose 0.03 mg/kg, 16 hours): 14% | AR reduced on average vs vehicle control (AR; single PO dose 0.1 mg/kg, 16 hours): -5% | AR reduced on average vs vehicle control (AR; single PO dose 0.3 mg/kg, 16 hours): 73% | AR reduced on average vs vehicle control (AR; single PO dose 1 mg/kg, 16 hours): 81% | AR reduced on average vs vehicle control (AR; single PO dose 3 mg/kg, 16 hours): 91% | AR reduced on average vs vehicle control (AR; single PO dose 10 mg/kg, tumors 16 hours post-dose): 96% | DC50 ([1]; 24 hours of treatment): < 1 nM | Dmax ([1]; 24 hours of treatment): ≥ 94% | elimination of AR from the cell (time course) ([1]; by 6 hours): near complete elimination of AR | degradation of AR (time course) ([1]; within 2 hours of treatment): > 50%
